Read-outs that look alike come from different tables or passages of the source.
Legend:
MAO-B = target: T1, MAO-B (Homo sapiens, UniProt P27338); assay: MAO-A/B biochemical kit, MAO-B
T1 construct: purchased Promega
T1 sequence (P27338 1-520): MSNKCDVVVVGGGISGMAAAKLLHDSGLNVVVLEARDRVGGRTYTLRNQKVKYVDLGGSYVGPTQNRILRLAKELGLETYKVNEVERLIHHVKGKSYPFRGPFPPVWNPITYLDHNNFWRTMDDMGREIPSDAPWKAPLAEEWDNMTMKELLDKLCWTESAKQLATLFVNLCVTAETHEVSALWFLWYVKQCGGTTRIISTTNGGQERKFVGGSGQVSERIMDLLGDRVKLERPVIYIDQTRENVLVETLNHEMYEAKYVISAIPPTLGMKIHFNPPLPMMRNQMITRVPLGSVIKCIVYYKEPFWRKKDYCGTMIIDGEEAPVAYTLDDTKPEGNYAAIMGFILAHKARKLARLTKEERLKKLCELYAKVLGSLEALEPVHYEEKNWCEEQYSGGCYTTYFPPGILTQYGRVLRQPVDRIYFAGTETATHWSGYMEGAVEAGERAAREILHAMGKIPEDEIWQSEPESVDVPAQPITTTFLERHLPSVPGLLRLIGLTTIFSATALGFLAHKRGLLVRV
From the text: (§1) LSD1 inhibitor screening assay kit was purchased to evaluate for the enzyme inhibition activity of all synthetic compounds (Cayman Chemical, Fort Annapolis, MI). The MAO-A/B biochemical kit was purchased to explore the inhibitory activity against MAO-A and MAO-B (Promega, Madison, WI). […] The signal of each well was read by a GloMax Explorer (Beijing Yuanpinghao Biotechnology Co., Ltd, Beijing, China).

LSD1 = LSD1 (Homo sapiens, UniProt O60341); assay: LSD1 inhibitor screening assay kit
From the text: as §1

MAO-A = target: T2, MAO-A (Homo sapiens, UniProt P21397); assay: MAO-A/B biochemical kit, MAO-A
T2 construct: purchased Promega
T2 sequence (P21397 1-527): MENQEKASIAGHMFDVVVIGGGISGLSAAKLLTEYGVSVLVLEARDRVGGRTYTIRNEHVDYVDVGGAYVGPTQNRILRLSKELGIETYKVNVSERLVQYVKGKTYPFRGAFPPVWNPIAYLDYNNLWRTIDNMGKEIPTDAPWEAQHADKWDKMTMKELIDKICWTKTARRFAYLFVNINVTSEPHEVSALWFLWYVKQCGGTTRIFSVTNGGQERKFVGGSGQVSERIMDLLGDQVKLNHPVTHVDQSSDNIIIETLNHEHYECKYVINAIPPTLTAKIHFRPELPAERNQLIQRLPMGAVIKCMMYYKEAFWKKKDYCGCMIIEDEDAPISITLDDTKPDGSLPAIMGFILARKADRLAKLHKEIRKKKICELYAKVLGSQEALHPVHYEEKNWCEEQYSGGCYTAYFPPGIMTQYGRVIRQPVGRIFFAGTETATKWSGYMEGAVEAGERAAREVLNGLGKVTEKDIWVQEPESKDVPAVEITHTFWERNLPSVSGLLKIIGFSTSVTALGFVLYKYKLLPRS
From the text: as §1

DU145 = system: DU145; design: method as in PMID 30992165; conditions: cited from earlier work
Hela [1] = system: Hela; design: method as in PMID 30992165; conditions: cited from earlier work
NAMPT = system: NAMPT; design: method as in PMID 30992165; conditions: cited from earlier work
H1975 = system: H1975; design: method as in PMID 30992165; conditions: cited from earlier work
A2780 = system: A2780; design: method as in PMID 31181480; conditions: read-out: IC50 against A2780; cited from earlier work
RKO = system: RKO; design: method as in PMID 31181480; conditions: read-out: IC50 against RKO; cited from earlier work
HCT-116 = system: HCT-116; design: method as in PMID 31181480; conditions: read-out: IC50 against HCT-116; cited from earlier work
Hela [2] = system: Hela; design: method as in PMID 31181480; conditions: read-out: IC50 against Hela; cited from earlier work
PC-3 cells = system: PC-3 cells; design: method as in PMID 28872607; conditions: read-out: IC50 against PC-3 cells; cited from earlier work

## O=S(=O)(Nc1cccc2cccnc12)c1ccccc1 [Compound J4, N-(quinolin-8-yl)benzenesulphonamide]
MAO-B
  IC50: > 120 µM
LSD1
  IC50: 82.5 ± 3.38 µM
MAO-A
  IC50: > 120 µM

## COc1cc(N(CCSC(=S)N2CCN(C(=O)OC(C)(C)C)CC2)S(=O)(=O)c2cccc3cccnc23)cc(OC)c1OC [Compound L1, Tert-butyl-4-(((2-(N-(3,4,5-trimethoxyphenyl)quinoline-8-sulfonamido)ethyl)thio)carbonothioyl)piperazine-1-carboxylate]
other
  melting point: 121 to 123 °C
MAO-B
  IC50: > 120 µM
LSD1
  IC50: 2.73 ± 0.29 µM
MAO-A
  IC50: > 120 µM

## Cc1ccccc1NS(=O)(=O)c1cccc(CCCCCCNC(=O)/C=C/c2cccnc2)c1 [Compound 4]
DU145
  antiproliferative activity against DU145 cells: single-digit nanomolar
Hela [1]
  antiproliferative activity against Hela cells: single-digit nanomolar
NAMPT
  IC50: 0.00508 µM
H1975
  antiproliferative activity against H1975 cells: single-digit nanomolar

## COc1cccc(Nc2ccnc3cc(OCCCc4ccccc4)ccc23)c1 [Compound 8]
A2780
  IC50: 3.46 µM
RKO
  IC50: 3.67 µM
HCT-116
  IC50: 2.56 µM
Hela [2]
  IC50: 2.71 µM

## COc1cc(N(CCCSC(=S)N2CCN(C(=O)OC(C)(C)C)CC2)S(=O)(=O)c2cccc3cccnc23)cc(OC)c1OC [Compound L2, Tert-butyl-4-(((3-(N-(3,4,5-trimethoxyphenyl)quinoline-8-sulfonamido)propyl)thio)carbonothioyl)piperazine-1-carboxylate]
other
  melting point: 130 to 132 °C
MAO-B
  IC50: > 120 µM
LSD1
  IC50: 1.39 ± 0.14 µM
MAO-A
  IC50: > 120 µM

## COc1ccc(S(=O)(=O)Nc2cccc3cccnc23)cc1 [Compound J2, 4-Methoxy-N-(quinolin-8-yl)benzenesulphonamide]
MAO-B
  IC50: > 120 µM
LSD1
  IC50: 45.6 ± 1.12 µM
MAO-A
  IC50: > 120 µM

## N[C@H]1CC[C@H](N[C@@H]2C[C@H]2c2ccccc2)CC1 [ORY-1001, reference compound]
MAO-A
  IC50: > 120 µM

## CC(C)(C)c1ccc(S(=O)(=O)Nc2cccc3cccnc23)cc1 [Compound J3, 4-(Tert-butyl)-N-(quinolin-8-yl)benzenesulphonamide]
MAO-B
  IC50: > 120 µM
LSD1
  IC50: 61.9 ± 2.46 µM
MAO-A
  IC50: > 120 µM

## COc1cc(N(CCCCBr)S(=O)(=O)c2cccc3cccnc23)cc(OC)c1OC [Compound K3, N-(4-bromobutyl)-N-(3,4,5-trimethoxyphenyl)quinoline-8-sulphonamide]
other
  melting point: 103 to 104 °C
MAO-B
  IC50: > 120 µM
LSD1
  IC50: 6.32 ± 0.77 µM
MAO-A
  IC50: > 120 µM

## O=S(=O)(Nc1cccc2cccnc12)c1ccc(Br)cc1 [Compound J6, 4-Bromo-N-(quinolin-8-yl)benzenesulphonamide]
other
  melting point: 192 to 194 °C
MAO-B
  IC50: > 120 µM
LSD1
  IC50: 61.8 ± 5.64 µM
MAO-A
  IC50: > 120 µM

## COc1cc(N(CCCBr)S(=O)(=O)c2cccc3cccnc23)cc(OC)c1OC [Compound K2, N-(3-bromopropyl)-N-(3,4,5-trimethoxyphenyl)quinoline-8-sulphonamide]
MAO-B
  IC50: > 120 µM
LSD1
  IC50: 9.63 ± 1.26 µM
MAO-A
  IC50: > 120 µM

## COc1cc(N(CCBr)S(=O)(=O)c2cccc3cccnc23)cc(OC)c1OC [Compound K1, N-(2-bromoethyl)-N-(3,4,5-trimethoxyphenyl)quinoline-8-sulphonamide]
other
  melting point: 158 to 160 °C
MAO-B
  IC50: > 120 µM
LSD1
  IC50: 14.8 ± 2.04 µM
MAO-A
  IC50: > 120 µM

## Cc1ccc(S(=O)(=O)NCc2cn(Cc3cccc(Oc4ccccc4)c3)nn2)cc1 [Compound 5]
PC-3 cells
  IC50: 4.08 µM

## COc1cc(N(CCCSC(=S)N2CCN(CCO)CC2)S(=O)(=O)c2cccc3cccnc23)cc(OC)c1OC [Compound L4, 3-(N-(3,4,5-trimethoxyphenyl)quinoline-8-sulfonamido)propyl-4–(2-hydroxyethyl)piperazine-1-carbodithioate]
MAO-B
  IC50: > 120 µM
LSD1; read-out: IC50 (μM) LSD1
  IC50: 0.67 ± 0.1 µM
MAO-A
  IC50: > 120 µM

## COc1cc(N(CCCCSC(=S)N2CCN(C(=O)OC(C)(C)C)CC2)S(=O)(=O)c2cccc3cccnc23)cc(OC)c1OC [Compound L6, Tert-butyl-4-(((4-(N-(3,4,5-trimethoxyphenyl)quinoline-8-sulfonamido)butyl)thio)carbonothioyl)piperazine-1-carboxylate]
other
  melting point: 98 to 100 °C
MAO-B
  IC50: > 120 µM
LSD1
  IC50: 0.23 ± 0.05 µM
MAO-A
  IC50: > 120 µM

## COc1cc(N(CCCCSC(=S)N2CCN(C)CC2)S(=O)(=O)c2cccc3cccnc23)cc(OC)c1OC [Compound L7, 4-(N-(3,4,5-trimethoxyphenyl)quinoline-8-sulfonamido)butyl-4-methylpiperazine-1-carbodithioate]
MAO-B
  IC50: > 120 µM
LSD1; read-out: IC50 (μM) LSD1
  IC50: 0.73 ± 0.08 µM
MAO-A
  IC50: > 120 µM

## COc1cc(NS(=O)(=O)c2cccc3cccnc23)cc(OC)c1OC [Compound J7, N-(3,4,5-trimethoxyphenyl)quinoline-8-sulphonamide]
MAO-B
  IC50: > 120 µM
LSD1
  IC50: 11.6 ± 1.92 µM
MAO-A
  IC50: > 120 µM

## COc1cc(N(CCSC(=S)N2CCN(CCO)CC2)S(=O)(=O)c2cccc3cccnc23)cc(OC)c1OC [Compound L3, 2-(N-(3,4,5-trimethoxyphenyl)quinoline-8-sulfonamido)ethyl-4–(2-hydroxyethyl)piperazine-1-carbodithioate]
MAO-B
  IC50: > 120 µM
LSD1; read-out: IC50 (μM) LSD1
  IC50: 1.85 ± 0.07 µM
MAO-A
  IC50: > 120 µM

## COc1ccc(S(=O)(=O)Nc2cccc3cccnc23)cc1OC [Compound J1, 3,4-Dimethoxy-N-(quinolin-8-yl)benzenesulphonamide]
MAO-B
  IC50: > 120 µM
LSD1
  IC50: 33.8 ± 2.04 µM
MAO-A
  IC50: > 120 µM

## CCN1CCN(C(=S)SCCCCN(c2cc(OC)c(OC)c(OC)c2)S(=O)(=O)c2cccc3cccnc23)CC1 [Compound L5, 4-(N-(3,4,5-trimethoxyphenyl)quinoline-8-sulfonamido)butyl-4-ethylpiperazine-1-carbodithioate]
MAO-B
  IC50: > 120 µM
LSD1; compound L8 versus L5
  LSD1 activity loss, hydroxyethyl group replaced with ethyl group: over 80 fold
LSD1; read-out: IC50 (μM) LSD1
  IC50: 4.92 ± 0.13 µM
MAO-A
  IC50: > 120 µM

## Cc1ccc(S(=O)(=O)Nc2cccc3cccnc23)cc1 [Compound J5, 4-Methyl-N-(quinolin-8-yl)benzenesulphonamide]
MAO-B
  IC50: > 120 µM
LSD1
  IC50: 74.5 ± 2.67 µM
MAO-A
  IC50: > 120 µM

Source: paper PMC8973347, “Discovery of novel sulphonamide hybrids that inhibit LSD1 against bladder cancer cells” (Journal of Enzyme Inhibition and Medicinal Chemistry, 2022)
